Measured values: patent US20250152527A1 (priority 2023, published 2025)

Key:
[1] = tested on: patients with clinically stable coronary disease; assay: LoDoCo Trial: colchicine 0.5 mg/day added to standard secondary prevention therapies; type: in vivo, human
Experimental: This study is described in PCT/AU2013/001261 and is hereby incorporated in its entirety by reference.
All outcomes were evaluated by an experienced adjudicator blinded to the treatment allocation.
Patients with a history of bypass surgery were only eligible if they had undergone bypass surgery more than 10 years before, or had angiographic evidence of graft failure or had undergone stenting since their bypass surgery. All patients signed informed consent before randomization.
Patients who were intolerant to therapy remained in the study, and were followed in the usual manner and included in the primary intention to treat analysis.
The drug was dispensed by their usual chemist, and if requested, patients were reimbursed for the cost of these scripts. All other treatments were continued as usual.
An acute coronary syndrome (ACS) was defined as either (a) Acute Myocardial Infarction (AMI), as evidenced by acute ischemic chest pain associated with a rise in serum troponin above the upper limit of normal or (b) Unstable Angina (UA), as evidenced by a recent acceleration of the patient's angina unassociated with a rise in serum troponin but associated with angiographic evidence of a change in the patient's coronary anatomy. (Unstable Angina Braunwald classification types IB and IIB). The ACS was characterized as being stent-related if there was evidence of significant in-stent stenosis or acute stent thrombosis. Out of Hospital Cardiac Arrest was defined as either a sudden death as evidenced on the patient's death certificate, or a non-fatal out of hospital cardiac arrest, defined as a recovery from sudden collapse associated with documented asystole, ventricular tachycardia or ventricular fibrillation.
The primary efficacy outcome was the composite, ACS, fatal or non-fatal out of hospital cardiac arrest or non-cardio-embolic ischemic stroke. […]
All time to event outcomes were calculated in days by subtracting the date of randomization from either: (1) the date of event or death; or (2) the trial termination date for those patients not experiencing the defined event. […]

[2] = tested on: patients with clinically stable coronary disease; settings: Nidorf et al., JACC 2013; 0.5 mg/day in addition to statins and other standard therapies; cited from earlier work

COc1cc2c(c(OC)c1OC)-c1ccc(OC)c(=O)cc1[C@@H](NC(C)=O)CC2 [colchicine, (−)-N-[(7S, 12aS)-1,2,3,10-tetramethoxy-9-oxo-5,6,7,9-tetrahydrobenzo[a]heptalen-7-yl]-acetamide]
patients with ACS unrelated to stent disease associated with an AMI ([1]; 4/282 patients): 1.4% | patients with ACS unrelated to stent disease associated with UA ([1]; 5/282 patients): 1.8% | patients with a primary outcome (ACS, out of hospital cardiac arrest or non-cardio-embolic ischemic stroke) ([1]; intention to treat, 15/282 patients, colchicine 0.5 mg/day, median follow up 36 months): 5.3% | prevention of cardiovascular events [2]: appeared effective for the prevention of cardiovascular events
